According to patent US20240228504A1, “SUBSTITUTED TRICYCLIC AMIDES, ANALOGUES THEREOF, AND METHODS USING SAME” (Arbutus Biopharma Corporation, priority 2020, published 2024):

System: HBV rcDNA in HepDE19 cells
Assay: HepDE19 assay with bDNA quantitation of HBV rcDNA
Type: cell-based, hepatitis B virus
Settings: HepDE19 assay, inhibition of rcDNA formation, bDNA quantitation; read-out: DE-19bDNA EC50

With `CN(C(=O)c1cc2cc(F)ccc2[nH]1)C1COCc2[nH]c(=O)c3cc(F)ccc3c21` (single isomer, unassigned) [Compound 29, 5-Fluoro-N-(8-fluoro-6-oxo-1,4,5,6-tetrahydro-2H-pyrano[3,4-c]isoquinolin-1-yl)-N-methyl-1H-indole-2-carboxamide] as the compound, how does the EC50 read?
The EC50 was 1500 nM.

For `CN(C(=O)C1Cc2c(F)cc(F)cc2N1)C1COCc2[nH]c(=O)c3cc(F)c(F)cc3c21` (stereo not drawn) [Compound 14, N-(8,9-Difluoro-6-oxo-1,4,5,6-tetrahydro-2H-pyrano[3,4-c]isoquinolin-1-yl)-4,6-difluoro-N-methylindoline-2-carboxamide], which EC50 is on record?
The EC50 was 40 nM.

For `CN(C(=O)c1cc2ccccc2[nH]1)C1CCCc2[nH]c(=O)c3cc(F)ccc3c21` (single isomer, unassigned) [Compound 475, N-(8-Fluoro-6-oxo-1,2,3,4,5,6-hexahydrophenanthridin-1-yl)-N-methyl-1H-indole-2-carboxamide], which EC50 is on record?
Its EC50 is 1800 nM.

Which EC50 does the source give for `CN(C(=O)c1cc2cc(F)c(F)cc2[nH]1)C1COCc2nc(NCCO)c3cc(F)c(F)cc3c21` (single isomer, unassigned) [Compound 335, N-(8,9-Difluoro-6-((2-hydroxyethyl)amino)-1,4-dihydro-2H-pyrano[3,4-c]isoquinolin-1-yl)-5,6-difluoro-N-methyl-1H-indole-2-carboxamide] here?
The EC50 was 440 nM.

Which EC50 does the source give for `CN(C(=O)c1cc2ccccn2c1)C1COCc2[nH]c(=O)c3cc(F)c(F)cc3c21` (single isomer, unassigned) [Compound 11, N-(8,9-Difluoro-6-oxo-1,4,5,6-tetrahydro-2H-pyrano[3,4-c]isoquinolin-1-yl)-N-methylindolizine-2-carboxamide] here?
The EC50 was 5300 nM.

Same assay, conditions: Hepatitis B virus, HepDE19, HepDE19 assay, inhibition of rcDNA formation, bDNA quantitation; read-out: DE-19bDNA EC50

With `CN(C(=O)c1ccc2nncn2c1)[C@@H]1COCc2[nH]c(=O)c3cc(F)c(F)cc3c21` [Compound 70, (S)-N-(8,9-Difluoro-6-oxo-1,4,5,6-tetrahydro-2H-pyrano[3,4-c]isoquinolin-1-yl)-N-methyl-[1,2,4]triazolo[4,3-a]pyridine-6-carboxamide] as the compound, how does the EC50 read?
The EC50 was 22000 nM.

Which EC50 does the source give for `[2H][C@@]1(N(C(=O)c2cc3cc(F)c(F)cc3[nH]2)[13C]([2H])([2H])[2H])COCc2[nH]c(=O)c3cc(F)c(F)cc3c21` [Compound 514, (S)-N-(8,9-Difluoro-6-oxo-1,4,5,6-tetrahydro-2H-pyrano[3,4-c]isoquinolin-1-yl-1-d)-5,6-difluoro-N-(methyl-^13C-d3)-1H-indole-2-carboxamide] here?
Its EC50 is 8 nM.

With `CN(C(=O)C1CN(c2ccsc2)C1)[C@@H]1COCc2[nH]c(=O)c3cc(F)c(F)cc3c21` [Compound 282, (S)-N-(8,9-Difluoro-6-oxo-1,4,5,6-tetrahydro-2H-pyrano[3,4-c]isoquinolin-1-yl)-N-methyl-1-(thiophen-3-yl)azetidine-3-carboxamide] as the compound, how does the EC50 read?
The EC50 was 290 nM.

With `CN(C(=O)c1ccc2ncoc2c1)[C@@H]1COCc2[nH]c(=O)c3cc(F)c(F)cc3c21` [Compound 409, (S)-N-(8,9-Difluoro-6-oxo-1,4,5,6-tetrahydro-2H-pyrano[3,4-c]isoquinolin-1-yl)-N-methylbenzo[d]oxazole-6-carboxamide] as the compound, how does the EC50 read?
Its EC50 is 2300 nM.

Which EC50 does the source give for `CN(C(=O)c1ccc(OC(F)(F)F)c(F)c1)[C@@H]1COCc2[nH]c(=O)c3cc(F)c(F)cc3c21` [Compound 136, (S)-N-(8,9-Difluoro-6-oxo-1,4,5,6-tetrahydro-2H-pyrano[3,4-c]isoquinolin-1-yl)-3-fluoro-N-methyl-4-(trifluoromethoxy)benzamide] here?
Its EC50 is 40 nM.

How did the EC50 turn out when `CN(C(=O)c1ccc2cn[nH]c2c1)[C@@H]1COCc2[nH]c(=O)c3cc(F)c(F)cc3c21` [Compound 450, (S)-N-(8,9-Difluoro-6-oxo-1,4,5,6-tetrahydro-2H-pyrano[3,4-c]isoquinolin-1-yl)-N-methyl-1H-indazole-6-carboxamide] was run?
The EC50 was 110 nM.

How did the EC50 turn out when `CNS(=O)(=O)c1cccc(C(=O)N(C)[C@@H]2COCc3[nH]c(=O)c4cc(F)c(F)cc4c32)c1` [Compound 296, (S)-N-(8,9-Difluoro-6-oxo-1,4,5,6-tetrahydro-2H-pyrano[3,4-c]isoquinolin-1-yl)-N-methyl-3-(N-methylsulfamoyl)benzamide] was run?
The EC50 was 890 nM.
